Assay results as given in patent publication US8236761B2, “C-Met receptor regulation by angiotensin IV (AT4) receptor ligands” (Washington State University Research Foundation, priority 2006, dated 2012).
Non-standard residues stand in square brackets, D forms with d. No end group written: not given here. Nle = CCCC[C@H](N)C(=O)O

Tests used:
[1] = system: B16-F0 murine melanoma; experiment: Primary tumor melanoma cancer model; assay type: in vivo, C57BL/6 mice; conditions: male C57 mice, Elvax pellet intramuscular, 21 μg/kg/day
[2] = system: human endothelial cells; experiment: Proliferation and migration of human endothelial cells; assay type: cell-based
[3] = system: neovascularization; experiment: Disc angiogenesis assay (subcutaneous sponge disc); assay type: in vivo, Sprague Dawley rats; conditions: 50 μg per disc core, 14 days, rat
Procedure: FIG. 19 depicts effects on angiogenesis of angiotensin-like factors in a rat in vivo disc angiogenesis assay. Vascularization was quantified by digital image analysis of fixed and stained discs recovered from animals 14 days after subcutaneous implantation of sponge discs containing the indicated compounds.
Disc Angiogenesis Assay. […] A 2 mm core was removed from the center of each disc, saturated with 50 μg of Nle^1-AngIV (SEQ ID NO:41), Nle^1-Leu^3-Ψ(CH2NH2)^3-4-AngIV, Hexamide, or ethanol (control), air dried, then sealed using a fixative (Elvax, DuPont) to allow sustained delivery of the drug treatment into the disc and adjacent tissues. The cores were dried for 30 min, then reinserted into the sponge discs. Impermeable top and bottom covers were prepared by coating 10 mm diameter paper discs with a plexiglass coating, then glued to the top and bottom of the sponge discs, leaving only the rim of the disc available for centripetal cellular penetration. Just prior to implantation, the discs were soaked briefly in sterile saline.
Thirty-two Sprague Dawley female rats (225-275 gr) were used to evaluate four compounds for angiogenic or anti-angiogenic properties using the disc angiogenesis assay. Animals were anesthetized using sodium pentobarbital (40 mg/kg IP). The dorsum was then shaved and aseptically prepped. Each animal received four discs. Animals receiving treated discs were implanted with 2 treated discs and 2 ethanol-soaked control discs. Thus, in a group of 4 animals there were 8 treatment discs, and 8 control discs. These control discs were used to determine whether the ligand had potential systemic effects. Another group of 4 animals received only ethanol-soaked control discs (spontaneous growth controls or SGC discs) for an n=16. However, one SGC was fragmented during processing leaving an n=15.
Four 2 cm cutaneous incisions were made along the dorsum (left thoracic, right thoracolumbar, left thoracolumbar, and right lumbar), and subcutaneous pouches opened in the fascia using blunt dissection. Discs were moistened in sterile saline, inserted deep to the pouch, and the skin closed with sterile surgical staples. Animals were recovered under heat lamps until sternally recumbent, then individually housed for 14 days in an AAALAC accredited facility (water and food ad libitum; 12/12 hour light cycle).
After 14 days the animals were euthanized in a CO2 chamber and the discs were removed. […] Cellular penetration into the discs was quantified using a digital imaging system (Imaging Research Inc., St. Catharines, Ontario, Canada). The total area of the disc was calculated, as was the area containing stained cells. […]
Results. Following staining with toludine blue or Factor VIII, neovascularization was quantitated by densitometry.

[4] = system: +SA WAZ-2T mouse mammary carcinoma cells; experiment: Orthotopic +SA WAZ-2T mammary carcinoma model; assay type: in vivo, Balb/c mice
Procedure: This Example describes Norleaul effects in a mouse model of breast cancer in which animals were orthotopically injected with +SA WAZ-2T mouse mammary carcinoma cells (5×10^5) into the mammary fat pad of 11-week old female Balb/c mice. The +SA cell line was chosen due to its aggressive nature and ability to form highly vascularized tumors with 100% incidence per injection (Danielson et al., 1986). NORLEUAL (SEQ ID NO:43) was delivered via Elvax slow release pellets at doses of 0.3 mg/pellet, 0.03 mg/pellet, and 0.003 mg/pellet, implanted into the mammary glands immediately prior to tumor cell injection. These pellets provided an estimated continuous release of NORLEUAL at doses equivalent to 37.5 μg/kg/day, 3.75 μg/kg/day, and 0.375 μg/kg/day, respectively (based on in vitro release assays of pellets, data not shown). […] Tumor growth was monitored every 2-3 days, based on caliper measurements of the two longest diameters and calculating tumor volume.

[5] = system: HUVECs; experiment: Extracellular matrix related gene microarray in HUVECs; assay type: cell-based, human; conditions: 8 days, 1 pM
Procedure: Angiotensin-like factors as candidate c-Met receptor ligands were tested for the ability to modulate expression of extracellular matrix-related proteins in human umbilical vein endothelial cells (HUVECs) by gene microarray. Briefly, HUVECs were treated for 8 days in the presence or absence of test compounds at a concentration of 1 pM; Norleual (Compound 2, SEQ ID NO:43) was used as an exemplary angiotensin-like factor. RNA was harvested and transcriptional activities of 96 extracellular matrix related genes were assessed using gene microarrays.

[6] = system: +SA murine mammary cancer cells; experiment: Angiogenesis-related gene microarray of +SA murine mammary tumors; assay type: in vivo, Balb/c mice; conditions: 28 days intraperitoneal osmotic pump, 1 mg/kg/day
Procedure: Angiotensin-like factor Norleual (COMPOUND 2) was tested for its ability to modulate angiogenic genes in murine mammary tumors. Briefly, Balb/c mice grafted with +SA murine mammary cancer cells were treated with Compound 2. After 28 days of intraperitoneal administration via an osmotic pump (at a dose of 1 mg/kg/day), primary tumors were harvested and RNA was collected. Transcriptional activities of 96 angiogenesis-related genes were assessed using gene microarrays.

Substance: Nle-Tyr-Leu-ψ-His-Pro-Phe ([Nle]YLHPF; also: reduced peptide bond psi(CH2NH2) between Leu and His) [Norleual]
- Primary B16-F0 murine melanoma growth [1]: inhibited
- Proliferation and migration of human endothelial cells [2]: inhibited
- Effect on angiogenesis in disc assay versus SGC discs [3]: antagonist activity
- Tumor volume ([4]; 0.003 mg/pellet, n=6): 112.7±61 mm^3
- Tumor mean vessel count/high power field (Factor VIII staining) ([4]; 0.3 mg/pellet, n=5, control 27.8±3): 3.0±0.9
- Delay in onset of palpable tumor mass ([4]; 0.3 mg/pellet, n=6, control 7 day lag): up to 21 days
- Inhibition of tumor volume compared to control ([4]; most effective dose, 0.3 mg/pellet): 97%
- Visible vascularization of tumors removed at conclusion ([4]; treated tumors): total lack of visible vascularization
- Change in gene expression versus control: CD44, catenin, catenin β, catenin δ1, MMP-1, PAI-1, thrombospondin 1, integrin α-2 [5]: at least two fold
- Change in gene expression versus control: Adamts 1, CD36, Connective tissue growth factor, PECAM 1, Cxcl 4, restin, Ccl 2, TNF-α, VEGF-α, VEGF-β [6]: at least five-fold
